The target in test [1] is T1, Bifunctional dihydrofolate reductase-thymidylate synthase (Toxoplasma gondii, UniProt Q07422).
T1 sequence (Q07422 whole entry): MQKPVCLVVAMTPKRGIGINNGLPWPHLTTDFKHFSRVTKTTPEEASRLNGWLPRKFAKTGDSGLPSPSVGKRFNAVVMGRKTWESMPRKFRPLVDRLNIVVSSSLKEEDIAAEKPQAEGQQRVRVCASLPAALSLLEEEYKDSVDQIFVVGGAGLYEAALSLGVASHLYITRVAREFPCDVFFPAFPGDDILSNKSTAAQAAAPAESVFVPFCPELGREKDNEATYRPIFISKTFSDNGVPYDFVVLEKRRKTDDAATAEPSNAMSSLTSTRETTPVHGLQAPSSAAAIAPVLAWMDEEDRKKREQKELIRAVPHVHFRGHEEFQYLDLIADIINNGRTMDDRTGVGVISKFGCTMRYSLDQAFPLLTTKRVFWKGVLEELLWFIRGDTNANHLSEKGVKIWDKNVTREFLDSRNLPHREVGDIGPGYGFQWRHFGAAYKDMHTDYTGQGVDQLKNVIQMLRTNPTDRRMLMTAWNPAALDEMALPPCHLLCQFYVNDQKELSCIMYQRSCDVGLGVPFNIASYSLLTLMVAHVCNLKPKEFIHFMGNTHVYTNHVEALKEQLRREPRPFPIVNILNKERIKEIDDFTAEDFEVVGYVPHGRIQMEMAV
The test can be described thus: (§1) Inhibition of Toxoplasma gondii dihydrofolate reductase.

Test [2] has as its target T2, Dihydrofolate reductase (Rattus norvegicus, UniProt Q920D2).
T2 sequence (Q920D2 whole entry): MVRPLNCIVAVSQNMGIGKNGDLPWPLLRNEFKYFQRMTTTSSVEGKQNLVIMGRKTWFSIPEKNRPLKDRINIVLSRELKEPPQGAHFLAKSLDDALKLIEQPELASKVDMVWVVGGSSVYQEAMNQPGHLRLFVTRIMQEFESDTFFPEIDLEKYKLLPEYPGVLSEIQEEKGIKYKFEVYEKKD
The test can be described thus: (§2) Inhibition of rat liver dihydrofolate reductase.

For test [3], the target named is T3, Dihydrofolate reductase (Pneumocystis carinii, UniProt P16184).
T3 sequence (P16184 whole entry): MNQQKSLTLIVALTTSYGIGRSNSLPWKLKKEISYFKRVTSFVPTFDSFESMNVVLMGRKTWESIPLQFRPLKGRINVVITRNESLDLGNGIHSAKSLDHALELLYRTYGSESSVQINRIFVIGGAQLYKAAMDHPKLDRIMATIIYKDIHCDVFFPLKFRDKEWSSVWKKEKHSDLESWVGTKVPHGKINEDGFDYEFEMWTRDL
As to the kind of experiment: (§3) Inhibition of Pneumocystis carinii dihydrofolate reductase.

Test [4] deals with T1, Bifunctional dihydrofolate reductase-thymidylate synthase. Described as §1. This is another data set of the same source.
Test [5] has as its target T2, Dihydrofolate reductase. The test is described as §2. This is another data set of the same source.
The target of test [6] is T3, Dihydrofolate reductase. The description is as §3. The source holds these as a separate data set.

pIC50: −log10 of the molar value.

As to `Nc1nc(N)c2cc(NCc3cccc4ccccc34)ccc2n1`, the pIC50 is 7.00 in test [1]; 6.72 on Dihydrofolate reductase [2]; 6.14 against Dihydrofolate reductase [3]; 7.00 in test [4]; 6.72 against Dihydrofolate reductase [5]; 6.14 against Dihydrofolate reductase [6].
As to `COc1cc(NCc2cnc3nc(N)nc(N)c3c2C)c(O)cc1-n1cccc1`, the pIC50 in test [1] is 7.48; at Dihydrofolate reductase [2], 6.64; against Dihydrofolate reductase [3], 6.46; in test [4], 7.48; on Dihydrofolate reductase [5], 6.64; on Dihydrofolate reductase [6] it was 6.46.
Turning to `Cc1c(CN(C)c2ccccc2)cnc2nc(N)nc(N)c12`, the pIC50 is 8.20 in test [1]; 7.74 against Dihydrofolate reductase [2]; 7.52 against Dihydrofolate reductase [3]; 8.20 in test [4]; 7.74 against Dihydrofolate reductase [5]; 7.52 against Dihydrofolate reductase [6].
On to `Cc1c(CN(C)c2ccc(Cl)cc2)cnc2nc(N)nc(N)c12`, for which the pIC50 in test [1] is 8.77; on Dihydrofolate reductase [2], 6.77; at Dihydrofolate reductase [3], 7.10; in test [4], 8.77; at Dihydrofolate reductase [5], 6.77; at Dihydrofolate reductase [6] it was 7.10.
For `COc1ccccc1NCc1cnc2nc(N)nc(N)c2c1C`, the pIC50 was 8.13 in test [1]; 7.10 on Dihydrofolate reductase [2]; 7.16 against Dihydrofolate reductase [3]; 8.13 in test [4]; 7.10 on Dihydrofolate reductase [5]; 7.16 against Dihydrofolate reductase [6].

By pIC50 is commonly meant the negative decadic logarithm of the IC50, by convention in mol/L. Low readings indicate a high IC50, high ones a low IC50.

Values taken from ChEMBL document CHEMBL1145190, “CoMFA and CoMSIA analyses of Pneumocystis carinii dihydrofolate reductase, Toxoplasma gondii dihydrofolate reductase, and rat liver dihydrofolate reductase” (J Med Chem, 2005).
